Results from PMC4500090 (Biochemical and biophysical research communications, 2015).
Where two headings read alike, the source gives them in different places.

Tests used:
Aurora B [1] = conditions: read-out: IC50 Aurora B; cited from earlier work
MEKK2 [2] = molecular target: T1, MEKK2 (Homo sapiens, UniProt Q9Y2U5); assay: MEKK2 intrinsic ATPase activity assay; type: biochemical
T1 sequence (Q9Y2U5 1-619): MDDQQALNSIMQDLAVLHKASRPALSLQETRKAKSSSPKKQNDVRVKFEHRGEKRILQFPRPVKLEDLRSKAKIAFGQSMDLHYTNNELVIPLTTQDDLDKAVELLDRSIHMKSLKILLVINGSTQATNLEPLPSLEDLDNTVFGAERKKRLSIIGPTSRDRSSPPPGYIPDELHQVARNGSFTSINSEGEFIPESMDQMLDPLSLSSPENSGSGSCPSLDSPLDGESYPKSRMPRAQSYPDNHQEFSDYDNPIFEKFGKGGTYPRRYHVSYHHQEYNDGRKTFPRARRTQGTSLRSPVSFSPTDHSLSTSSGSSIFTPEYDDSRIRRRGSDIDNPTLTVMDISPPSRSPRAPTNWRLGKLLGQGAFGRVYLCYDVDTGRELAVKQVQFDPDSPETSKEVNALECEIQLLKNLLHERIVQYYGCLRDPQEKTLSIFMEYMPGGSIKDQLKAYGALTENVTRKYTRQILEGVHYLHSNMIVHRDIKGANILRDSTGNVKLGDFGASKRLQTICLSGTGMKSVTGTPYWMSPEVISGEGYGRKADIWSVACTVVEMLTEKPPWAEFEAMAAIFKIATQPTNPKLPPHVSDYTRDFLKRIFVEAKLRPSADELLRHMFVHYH

JAK3 = conditions: read-out: IC50 JAK3; cited from earlier work
Abl (T315I) mutant = conditions: read-out: IC50 Abl (T315I) mutant; cited from earlier work
10 other kinases = conditions: read-out: IC50 10 other kinases; cited from earlier work
MEKK2 [3] = molecular target: T1, MEKK2; assay: MEKK2 transphosphorylation slot blot assay using MKK6 as a substrate; type: biochemical
Aurora A = conditions: read-out: IC50 Aurora A; cited from earlier work
Aurora B [4] = conditions: read-out: IC50 Aurora B; cited from earlier work; remark: listed apart in the source
CDK2 = conditions: read-out: IC50 CDK2; cited from earlier work
CDK1 = conditions: read-out: IC50 CDK1; cited from earlier work
CDK3 = conditions: read-out: IC50 CDK3; cited from earlier work

SMILES	IC50 (Aurora B [1]) [nM]	IC50 (MEKK2 [2]) [nM]	IC50 (JAK3) [nM]	IC50 (Abl (T315I) mutant) [nM]	IC50 (10 other kinases) [nM]	IC50 (MEKK2 [3]) [nM]	IC50 (Aurora A) [nM]	IC50 (Aurora B [4]) [nM]	IC50 (CDK2) [nM]	IC50 (CDK1) [nM]	IC50 (CDK3) [nM]
O=C(Nc1c[nH]nc1-c1nc2ccc(CN3CCOCC3)cc2[nH]1)NC1CC1 [AT9283]	[…]	[…]	[…]	4	[…]	4.7 ± 0.9	[…]	–	–	–	–
NC(=O)Nc1cc(-c2cccc(F)c2)sc1C(=O)N[C@H]1CCCNC1 [AZD7762]	–	20 ± 7	–	–	–	14 ± 2	–	–	–	–	–
CCS(=O)(=O)Nc1ccc2c(c1)/C(=C(/Nc1ccc(CN3CCCCC3)cc1)c1ccccc1)C(=O)N2 [Hesperadin]	–	60 ± 25	–	–	–	34 ± 11	–	250	–	–	–
Nc1nc(Nc2ccc(S(N)(=O)=O)cc2)nn1C(=O)c1c(F)cccc1F [JNJ-7706621]	–	24 ± 8	–	–	–	17 ± 2	–	–	[…]	[…]	[…]
